Test results reported in US7071168B2, “Anti-cancer compounds and methods related thereto” (The Regents of the University of Colorado, priority 1998, dated 2006).

Assays:
SCLC strain SHP-77 = assay: Colorimetric tetrazolium (MTT) assay for cell survival, SCLC strain SHP-77; format: cell-based, human
Outline: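 MTT assay: cells seeded overnight, treated in triplicate across a concentration range for 4 days at 37 °C, 5% CO2. On day 5, MTT was added for 4 h; formazan was dissolved in acidified isopropanol and absorbance read.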

[1] = target: T1, cloned human bradykinin B2 receptors (Homo sapiens, UniProt P30411); assay: Anti-bradykinin activity on cloned human B2 receptors (CHO cells, Cytosensor microphysiometer); format: cell-based; details: higher numbers indicate higher potency
T1 sequence (P30411 1-391): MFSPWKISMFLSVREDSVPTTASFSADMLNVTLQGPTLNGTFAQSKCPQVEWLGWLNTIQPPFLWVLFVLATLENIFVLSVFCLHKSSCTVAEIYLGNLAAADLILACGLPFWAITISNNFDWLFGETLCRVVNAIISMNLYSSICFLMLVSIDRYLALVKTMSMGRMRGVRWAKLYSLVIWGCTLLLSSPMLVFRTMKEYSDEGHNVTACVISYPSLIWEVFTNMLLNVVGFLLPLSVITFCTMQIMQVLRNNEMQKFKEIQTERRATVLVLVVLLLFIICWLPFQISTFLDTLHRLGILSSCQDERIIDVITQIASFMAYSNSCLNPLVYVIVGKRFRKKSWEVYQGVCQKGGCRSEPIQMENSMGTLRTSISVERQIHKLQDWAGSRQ
Description: In general, Anti-bradykinin activity was determined by the classical guinea pig ileum assay and on Chinese hamster ovary (CHO) cells expressing cloned human bradykinin B2 receptors. Anti-tumor activity was determined on cultured human cancer cell lines using the standard tetrazolium (MTT) assay.
Chinese hamster ovary cells containing cloned and expressed human bradykinin B2 receptors were grown in cell cups of the Cytosensor microphysiometer in Ham's F-12 medium supplemented with sodium pyruvate and 10% FBS (Gibco 11765-054). For assay the cells were transferred to Ham's F-12 without bicarbonate or serum (Gibco 21700-075) and placed in the Cytosensor. Concentration-response curves were constructed to bradykinin in the presence or absence of new compounds.

[2] = tested on: bradykinin response of isolated guinea pig ileum; assay: Anti-bradykinin activity on isolated guinea pig ileum
Outline: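 Bradykinin concentration-effect curves were run in the absence and presence of compound. Tissue: 25 mm terminal ileum from male Hartley guinea pigs fasted overnight, held at 1 g tension in O2/CO2-bubbled Krebs' solution after 1 h equilibration.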

[3] = cloned human B2 receptors, pD2 for bradykinin is 11
[4] = Table 1, higher numbers indicate higher potency
[5] = isolated guinea pig ileum, pD2 of bradykinin is 7.4, higher numbers indicate higher potency

Row | Compound | MTT: ED50 for killing of SCLC strain SHP-77 in vitro (SCLC strain SHP-77; SCLC strain SHP-77 in vitro) | HUMAN: pA2 for bradykinin antagonist potency on cloned human B2 receptors [1, 3] | GPI: pA2 for bradykinin antagonist activity on isolated guinea pig ileum [2, 4] | MTT: ED50 for killing of SCLC strain SHP-77 in vitro (SCLC strain SHP-77; Table 1, SHP-77, MTT, 4 days) | HUMAN: pA2 for bradykinin antagonist potency on cloned human B2 receptors ([1]; Table 1) | also measured
1 | CC1(C)CC(NC(=O)[C@H](CC(=O)O)NC(=O)[C@H](Cc2ccc3ccccc3c2)NC(=O)CCCCCCCCCCC(=O)N[C@@H](Cc2ccc3ccccc3c2)C(=O)N[C@@H](CC(=O)O)C(=O)NC2CC(C)(C)NC(C)(C)C2)CC(C)(C)N1 [M432] | 70 µM | 10 |  |  |  | 
2 | DDD-(Pac-2Nal-Arg-NH2)2 [M498] |  |  | 4.9 | 24 µM | Inact | 
3 | DDD-(Lys-Pac-Gly-mABz-2Nal-NH2)2 [M494] |  |  | 5.1 | 33 µM | Inact | 
4 | F5c-hPhe-Arg [M420] |  |  | 7.0 | 60 µM | 10.9 | 
5 | F5c-OBS-Arg [M520] |  |  | 6.1 | Inact | 7 | 
6 | F5c-2Nal-Arg [M446] |  |  | 4.7 | 60 µM | 9 | 
7 | DDD-(DArg-Arg-Aud-Pac-2Nal-Arg)2 [M516] |  |  | 0 | 1.4 µM | Ag | 
8 | CC1(C)CC(NC(=O)C(NC(=O)C=Cc2ccc(NC(=O)CCCCCCCCC(=O)O)cc2)C2Cc3ccccc3C2)CC(C)(C)N1 (centres unmarked) [M586-B] | 40 µM | 12.3 |  |  |  | 
9 | CN1CCN(NC(=O)C(Cc2ccc3ccccc3c2)NC(=O)C=Cc2ccc(N(C)C)cc2)CC1 (centres unmarked) [M472] | 25 µM | Inact |  |  |  | GPI: pA2 for bradykinin antagonist activity on isolated guinea pig ileum [2, 5]: 5.3
10 | CC1(C)CC(NC(=O)[C@H](Cc2ccc3ccccc3c2)NC(=O)C=Cc2ccc(NC(=O)CCCCCCCCCCC(=O)Nc3ccc(C=CC(=O)N[C@@H](Cc4ccc5ccccc5c4)C(=O)NC4CC(C)(C)NC(C)(C)C4)cc3)cc2)CC(C)(C)N1 [M310] | 1.2 µM | Inact |  |  |  | GPI: pA2 for bradykinin antagonist activity on isolated guinea pig ileum [2, 5]: 5.1
11 | F5c-OC2Y-Arg [M512] |  |  | 5.7 | 70 µM | 11 | 
12 | DDD-(Pac-2Nal-Arg)2 [M484] |  |  | Inact | 25 µM | Inact | 
13 | CC1(C)CC(NC(=O)C(Cc2cccnc2)NC(=O)C=Cc2c(F)c(F)c(F)c(F)c2F)CC(C)(C)N1 (centres unmarked) [M438] | 26 µM | 10 |  |  |  | GPI: pA2 for bradykinin antagonist activity on isolated guinea pig ileum [2, 5]: 4.8
14 | CN(C(=O)C=Cc1c(F)c(F)c(F)c(F)c1F)C(Cc1ccc(OCc2c(Cl)cccc2Cl)cc1)C(=O)NC1CC(C)(C)NC(C)(C)C1 (centres unmarked) [M594] | 3.7 µM | 8 |  |  |  | GPI: pA2 for bradykinin antagonist activity on isolated guinea pig ileum [2, 5]: 5.0
15 | DDD-(Arg-DIgl-Oic-Arg-OMe)2 [M598] |  |  |  | 13 µM | 10 | 
16 | CN1CCN(NC(=O)C(Cc2ccc3ccccc3c2)NC(=O)c2cccc(NC(=O)C=Cc3c(F)c(F)c(F)c(F)c3F)c2)CC1 (centres unmarked) [M492] | 45 µM | Inact |  |  |  | GPI: pA2 for bradykinin antagonist activity on isolated guinea pig ileum [2, 5]: 5.1
17 | α-DDD-(Lys-B9430-OMe)2 [M600] |  |  | 6.4 | 1.2 µM | Ag | 
18 | DDD-(pABz-2Nal-Arg-NH2)2 [M500] |  |  | 0 | 40 µM | 11.4 | 
19 | DDD-(DArg-OC2Y-Arg)2 [M518] |  |  |  | 15 µM | 10 | 
20 | O=C(C=Cc1cccnc1)Nc1ccc(C(=O)NC(Cc2ccc3ccccc3c2)C(=O)O)cc1 (centres unmarked) [M422] | 52 µM | Inact |  |  |  | 

Row | Compound | MTT: ED50 for killing of SCLC strain SHP-77 in vitro (SCLC strain SHP-77; SCLC strain SHP-77 in vitro) | HUMAN: pA2 for bradykinin antagonist potency on cloned human B2 receptors [1, 3] | GPI: pA2 for bradykinin antagonist activity on isolated guinea pig ileum [2, 4] | MTT: ED50 for killing of SCLC strain SHP-77 in vitro (SCLC strain SHP-77; Table 1, SHP-77, MTT, 4 days) | HUMAN: pA2 for bradykinin antagonist potency on cloned human B2 receptors ([1]; Table 1) | also measured
21 | CC1(C)CC(NC(=O)C(Cc2ccc(OCc3c(Cl)cccc3Cl)cc2)NC(=O)C(C#N)=Cc2ccc(O)cc2)CC(C)(C)N1 (centres unmarked) [M602] | 12 µM | 10.8 |  |  |  | 
22 | CN(C)c1ccc(CNC(=O)C(Cc2ccc3ccccc3c2)NC(=O)C=Cc2c(F)c(F)c(F)c(F)c2F)cc1 (centres unmarked) [M536] | 4 µM | Inact |  |  |  | 
23 | CN(C)c1ccc(C=CC(=O)NC(Cc2ccc3ccccc3c2)C(=O)N2CCSCC2)cc1 (centres unmarked) [M478] | 30 µM | Inact |  |  |  | GPI: pA2 for bradykinin antagonist activity on isolated guinea pig ileum [2, 5]: 5.1
24 | CN(C)c1ccc(C=CC(=O)NC(Cc2ccc(OCc3c(Cl)cccc3Cl)cc2)C(=O)NC2CC(C)(C)NC(C)(C)C2)cc1 (centres unmarked) [M582] | 3 µM | 9.5 |  |  |  | GPI: pA2 for bradykinin antagonist activity on isolated guinea pig ileum [2, 5]: 5.4
25 | O=C(C=Cc1cccnc1)NC(Cc1ccc2ccccc2c1)C(=O)Nc1cccc(CO)c1 (centres unmarked) [M474] | 35 µM | Inact |  |  |  | 
26 | CN(C)c1cccc2c(S(=O)(=O)NC(Cc3ccc(OCc4ccccc4)cc3)C(=O)NC3CC(C)(C)NC(C)(C)C3)cccc12 (centres unmarked) [M574] | 4.5 µM | Inact |  |  |  | 
27 | DDD-(Eac-Arg-DIgl-Oic-Arg-OMe)2 [M608] |  |  |  | 13 µM | Inact | 
28 | DDD-(DArg-Arg-Eac-Ser-DF5F-Oic-Arg)2 [M804] |  |  | 7.7 | 7.3 µM |  | 
29 | Aca-c[DArg-Arg-Pro-Hyp-Gly-Thi-Ser-Nig-Oic-Arg] [B10304] |  |  |  |  |  | GPI: pA2 for bradykinin antagonist activity on isolated guinea pig ileum ([2]; Table 3, cyclic peptides): 6.4; MTT: ED50 for killing of SCLC strain SHP-77 in vitro (SCLC strain SHP-77; Table 3, cyclic peptides): Inact
30 | CC1(C)CC(NC(=O)[C@H](Cc2c[nH]c3ccccc23)NC(=NC2CCCCC2)NC2CCCCC2)CC(C)(C)N1 [M264] | 16 µM |  |  |  |  | GPI: pA2 for bradykinin antagonist activity on isolated guinea pig ileum [2, 5]: 4.7
31 | CC1(C)CC(NC(=O)C(Cc2cccc3ccccc23)NC(=O)C=Cc2ccc(NC(=O)CCCCCCCCCCC(=O)Nc3ccc(C=CC(=O)NC(Cc4cccc5ccccc45)C(=O)NC4CC(C)(C)NC(C)(C)C4)cc3)cc2)CC(C)(C)N1 (centres unmarked) [M616] | 1.4 µM |  |  |  |  | GPI: pA2 for bradykinin antagonist activity on isolated guinea pig ileum [2, 5]: 5.4
32 | F5c-DArg-Arg-Eac-Ser-DTic-Oic-Arg [M792] |  |  | 4.9 | >100 µM |  | 
33 | CC1(C)CC(NC(=O)[C@H](Cc2ccc3ccccc3c2)NC(=O)C(C2CCCCC2)C2CCCCC2)CC(C)(C)N1 [M276] | 4.6 µM |  |  |  |  | GPI: pA2 for bradykinin antagonist activity on isolated guinea pig ileum [2, 5]: 5.3
34 | c[Bala-DArg-Arg-Eac-Ser-DF5F-Oic-Arg] [M910] |  |  |  |  |  | GPI: pA2 for bradykinin antagonist activity on isolated guinea pig ileum ([2]; Table 3, cyclic peptides): 5.2; MTT: ED50 for killing of SCLC strain SHP-77 in vitro (SCLC strain SHP-77; Table 3, cyclic peptides): 42 µM
35 | DDD-(DArg-Arg-Aud-DF5F-Oic-Arg)2 [M846] |  |  | 7.1 | 2 µM |  | 
36 | Moti-DArg-Arg-Pro-Hyp-Gly-Thi-Ser-DIgl-Oic-Arg [B10104-3] |  |  | 8.1 | 20 µM |  | 
37 | CC1(C)CC(NC(=O)C(Cc2ccc3ccccc3c2)NC(=O)OC(C)(C)C)CC(C)(C)N1 (centres unmarked) [M288] | Inact |  |  |  |  | GPI: pA2 for bradykinin antagonist activity on isolated guinea pig ileum [2, 5]: 5.2
38 | c[DArg-Arg-Add-DF5F-Oic-Arg] [M870] |  |  |  |  |  | GPI: pA2 for bradykinin antagonist activity on isolated guinea pig ileum ([2]; Table 3, cyclic peptides): 5.3; MTT: ED50 for killing of SCLC strain SHP-77 in vitro (SCLC strain SHP-77; Table 3, cyclic peptides): 5.5 µM
39 | Dpa-PFF-Arg [M816] |  |  | 4.6 | 52 µM |  | 
